# Experimental data: patent US20230210825A1, “METHODS AND COMPOSITIONS FOR TREATING SUBJECTS WITH METABOLIC DISORDERS AND CORONAVIRUS INFECTIONS” (CIRIUS THERAPEUTICS, INC., priority 2020, published 2023)
# Legend:
# [1] = tested on: influenza virus A/PR/8/34 (H1N1) infected mice; experiment: Influenza virus infection of C57BL/6 mice; format: in vivo; settings: 30 mg/kg for 8 days
# Method: As shown in the top panel of FIG. 13A, C57BL/6 mice were infected with the influenza virus A/PR/8/34 (H1N1; ˜200 pfu/mouse) and then dosed for 8 days with vehicle or 30 mg/kg MSDC-0602K. As shown in the bottom panel of FIG. 13A, body weight was measured daily as indication of the health of the mice and at day 14 the mice were sacrificed for examination of their blood and lung tissue. The mice were sacrificed on day 14. […] The MCP-1 production levels are decreased in mice treated with MSDC-0602K compared with mice with vehicle treatment. Similarly, the inflammatory monocyte numbers in the lungs are reduced in mice treated with MSDC-0602K compared with mice with vehicle treatment. FIG. 13 C is a representative histology with a calculation of the percent disrupted area. […] The levels of protein-B (sftbp) and ABCA3 protein (abca3) were increased in mice treated with MSDC-0602K compared with mice with vehicle treatment. On the other hand, the total protein levels in bronchoalveolar lavage were decreased in mice treated with MSDC-0602K compared with mice with vehicle treatment.
# carbonyl reductase = experiment: Metabolism to the hydroxy metabolite
# [2] = sacrificed day 14, vs vehicle (FIG. 13B)
compound,measurement,setting,value
COc1cccc(C(=O)COc2ccc(CC3SC(=O)NC3=O)cc2)c1 (stereo not shown) [MSDC-0602K],expression of ABCA3 protein (abca3) in the lungs,"[1]; sacrificed day 14, vs vehicle",increased
same,expression of surfactant protein-B (sftbp) in the lungs,"[1]; sacrificed day 14, vs vehicle",increased
same,MCP-1 (CCL2) production in the lungs,[1]; [2],decreased
same,inflammatory monocyte numbers in the lungs,[1]; [2],reduced
same,disrupted area in lung (histology),"[1]; sacrificed day 14, vs vehicle (FIG. 13C)",significantly reduced
same,total protein levels in bronchoalveolar lavage (lung barrier leakage),"[1]; sacrificed day 14, vs vehicle (FIG. 13E)",decreased
same,metabolism,carbonyl reductase,metabolized to its hydroxy metabolite (MSDC-0597) by a carbonyl reductase
